Results published in patent US8575135B2 (Gilead Sciences, Inc., priority 2011, dated 2013).
Where two headings read alike, the source gives them in different places.

Legend:
Test in all cases: microbe, parasite or virus in culture
[1] = system: stable HCV 1a RLuc replicon cells (genotype 1a H77 replicon); format: cell-based; conditions: Hepatitis C virus
Method: (§1) Evaluation of Cell-Based Anti-HCV Activity:
(§2) Antiviral potency (EC50) was determined using a Renilla luciferase (RLuc)-based HCV replicon reporter assay. […] To perform the assay for genotype 2a (with M31 present in NS5A) or 2b, NS5A chimeric genotype 2a JFH-1 replicons that encodes a RLuc-Neo reporter and either genotype 2a J6 strain NS5A gene or genotype 2b MD2b-1 strain NS5A gene (both with M31 present) respectively, were either transiently transfected (t) into Huh-Lunet cells or were established as stably replicating replicon cells (s) is provided. Either cells were dispensed into 384-well plates for EC50 assays. To perform the assay for genotype 3 and 4, NS5A chimeric genotype 1b Con1 replicons that encodes a Pi-RLuc reporter and either genotype 3a S52 strain NS5A gene or genotype 4a ED43 strain NS5A gene respectively, were transiently transfected (t) into Huh-Lunet cells, which were subsequently dispensed into 384-well plates. Compounds were dissolved in DMSO at a concentration of 10 mM and diluted in DMSO either manually or using an automated pipeting instrument. Serially 3-fold diluted compounds were either manually mixed with cell culture media and added to the seeded cells or directly added to the cells using an automated instrument. […] 72 hours later, cells were lysed and Renilla luciferase activity quantified as recommended by the manufacturer (Promega-Madison, Wis.). Non-linear regression was performed to calculate EC50 values.

[2] = system: stable HCV 2a JFH-1 Rluc replicon cells (L31 present in NS5A); format: cell-based; conditions: Hepatitis C virus
[3] = system: NS5A chimeric genotype 2a JFH-1 replicon with genotype 2a J6 strain NS5A gene (M31 present); format: cell-based, HCV; conditions: Hepatitis C virus
Method: as §1, §2

[4] = system: NS5A chimeric genotype 2a JFH-1 replicon with genotype 2b MD2b-1 strain NS5A gene (M31 present); format: cell-based, HCV; conditions: Hepatitis C virus
Method: as §1, §2

[5] = system: NS5A chimeric genotype 1b Con1 replicon with genotype 4a ED43 strain NS5A gene; format: cell-based, HCV; conditions: Hepatitis C virus
[6] = system: NS5A chimeric genotype 1b Con1 replicon with genotype 3a S52 strain NS5A gene; format: cell-based, HCV; conditions: Hepatitis C virus, read-out: 3a (nM)
Method: as §1, §2

SMILES	EC50 ([1]; read-out: 1a)	EC50 ([1]; read-out: 1a (nM))	EC50 ([2]; read-out: 2a JFH)	EC50 ([2]; read-out: 2a JFH (nM))	EC50 ([3]; read-out: 2a J6)	EC50 ([3]; read-out: 2a Jb (t) (nM))	EC50 ([4]; read-out: 2b)	EC50 ([4]; read-out: 2b (s) (nM))	EC50 ([4]; read-out: 2b (t) (nM))	EC50 ([5]; read-out: 4a)	EC50 ([5]; read-out: 4a (s) (nM))	EC50 ([3]; read-out: 2a J6 (s) (nM))	EC50 ([5]; read-out: 4a (t) (nM))	EC50 [6]
COC(=O)N[C@H](C(=O)N1[C@@H](C)CC[C@H]1c1ncc(-c2ccc3c(c2)COc2cc4c(ccc5nc([C@@H]6CCCN6C(=O)[C@@H](NC(=O)OC)C6CCOCC6)[nH]c54)cc2-3)[nH]1)C(C)C [Compound 602]	< 1 nM	0.025 nM	< 1 nM	0.01 nM	< 1 nM	0.053 nM	< 1 nM	0.036 nM	0.036 nM	< 1 nM	0.013 nM			
CC[C@@H](C)[C@H](NC(=O)OC)C(=O)N1C[C@@H](COC)C[C@H]1c1nc2ccc3cc4c(cc3c2[nH]1)OCc1cc(-c2cnc([C@@H]3CC[C@H](C)N3C(=O)[C@@H](NC(=O)OC)[C@H](C)CC)[nH]2)ccc1-4 [Compound 643]	< 1 nM	0.015 nM	< 1 nM	0.013 nM	< 1 nM	0.206 nM	< 1 nM		0.607 nM					
COC[C@H]1C[C@@H](c2nc3ccc4cc5c(cc4c3[nH]2)OCc2cc(-c3ccc4nc([C@@H]6CCCN6C(=O)[C@@H](NC(=O)OC)C(C)C)[nH]c4c3)ccc2-5)N(C(=O)[C@H](NC(=O)OC)c2ccccc2)C1 [Example MS]	< 1 nM	0.008 nM	< 1 nM	0.005 nM	> 5 nM		> 5 nM	9.56 nM		< 1 nM	0.02 nM	15.6 nM	0.014 nM	
COC(=O)N[C@H](C(=O)N1[C@@H](C)CC[C@H]1c1ncc(-c2ccc3c(c2)COc2cc4c(ccc5nc([C@@H]6CCCN6C(=O)[C@H](N)c6ccccc6)[nH]c54)cc2-3)[nH]1)C(C)C [Example NR, Methyl [(2S)-1-{(2S,5S)-2-[5-(2-{(2S)-1-[(2R)-2-amino-2-phenylacetyl]pyrrolidin-2-yl}-1,11-dihydroisochromeno[4′,3′:6,7]naphtho[1,2-d]imidazol-9-yl)-1H-imidazol-2-yl]-5-methylpyrrolidin-1-yl}-3-methyl-1-oxobutan-2-yl]carbamate]	< 1 nM	0.026 nM	< 1 nM	0.006 nM	< 1 nM	0.118 nM	< 1 nM	0.017 nM	0.017 nM	< 1 nM	0.007 nM			
CC[C@H](C)[C@H](NC(=O)OC)C(=O)N1C[C@@H](COC)C[C@H]1c1ncc(-c2ccc3c(c2)COc2cc4c(ccc5nc([C@@H]6CC[C@H](C)N6C(=O)[C@@H](NC(=O)OC)C(C)C)[nH]c54)cc2-3)[nH]1 [Example OF, Methyl {(2S,3S)-1-[(2S,4S)-2-(5-{2-[(2S,5S)-1-{(2S)-2-[(methoxycarbonyl)amino]-3-methylbutanoyl}-5-methylpyrrolidin-2-yl]-1,11-dihydroisochromeno[4′,3′:6,7]naphtho[1,2-d]imidazol-9-yl}-1H-imidazol-2-yl)-4-(methoxymethyl)pyrrolidin-1-yl]-3-methyl-1-oxopentan-2-yl}carbamate]	< 1 nM	0.01 nM	< 1 nM	0.008 nM	< 1 nM	0.445 nM	< 1 nM		0.196 nM					
CC[C@@H](C)[C@H](NC(=O)OC)C(=O)N1C[C@@H](COC)C[C@H]1c1ncc(-c2ccc3c(c2)COc2cc4c(ccc5nc([C@@H]6CC[C@H](C)N6C(=O)[C@@H](NC(=O)OC)C(C)C)[nH]c54)cc2-3)[nH]1 [Example OG, Methyl {(2S)-1-[(2S,5S)-2-(9-{2-[(2S,4S)-1-[N-(methoxycarbonyl)-L-alloisoleucyl]-4-(methoxymethyl)pyrrolidin-2-yl]-1H-imidazol-5-yl}-1,11-dihydroisochromeno[4′,3′:6,7]naphtho[1,2-d]imidazol-2-yl)-5-methylpyrrolidin-1-yl]-3-methyl-1-oxobutan-2-yl}carbamate]	< 1 nM	0.009 nM	< 1 nM	0.008 nM	< 1 nM	0.601 nM	< 1 nM		0.437 nM					
COC[C@H]1C[C@@H](c2ncc(-c3ccc4c(c3)COc3cc5c(ccc6nc([C@@H]7CCCN7C(=O)[C@@H](NC(=O)OC)C(C)C)[nH]c65)cc3-4)[nH]2)N(C(=O)[C@H](N)c2ccccc2)C1 [Example OL, Methyl {(2S)-1-[(2S)-2-(9-{2-[(2S,4S)-[(2R)-2-amino-2-phenylacetyl]-4-(methoxymethyl)pyrrolidin-2-yl]-1H-imidazol-5-yl}-1,11-dihydroisochromeno[4′,3′:6,7]naphtho[1,2-d]imidazol-2-yl)pyrrolidin-1-yl]-3-methyl-1-oxobutan-2-yl}carbamate]	< 1 nM	0.047 nM	< 1 nM	0.012 nM	< 1 nM	0.07 nM	< 1 nM	0.052 nM	0.052 nM					
CC[C@H](C)[C@H](NC(=O)OC)C(=O)N1[C@@H](C)CC[C@H]1c1ncc(-c2ccc3c(c2)COc2cc4c(ccc5nc([C@@H]6C[C@H](COC)CN6C(=O)[C@@H](NC(=O)OC)C(C)C)[nH]c54)cc2-3)[nH]1 [Example OX, Methyl {(2S)-1-[(2S,4S)-2-(9-{2-[(2S,5S)-1-{(2S,3S)-2-[(methoxycarbonyl)amino]-3-methylpentanoyl}-5-methylpyrrolidin-2-yl]-1H-imidazol-5-yl}-1,11-dihydroisochromeno[4′,3′:6,7]naphtho[1,2-d]imidazol-2-yl)-4-(methoxymethyl)pyrrolidin-1-yl]-3-methyl-1-oxobutan-2-yl}carbamate]	< 1 nM	0.007 nM	< 1 nM	0.006 nM	< 1 nM	0.113 nM	< 1 nM		0.107 nM					
COC(=O)N[C@H](C(=O)N1C[C@@H](COC(F)F)C[C@H]1c1nc2ccc3cc4c(cc3c2[nH]1)OCc1cc(-c2cnc([C@@H]3CC[C@H](C)N3C(=O)[C@@H](NC(=O)OC)C(C)C)[nH]2)ccc1-4)C(C)C [Example PS, methyl {(2S)-1-[(2S,5S)-2-(5-{2-[(2S,4S)-4-[(difluoromethoxy)methyl]-1-{(2S)-2-[(methoxycarbonyl)amino]-3-methylbutanoyl}pyrrolidin-2-yl]-1,11-dihydroisochromeno[4′,3′:6,7]naphtho[1,2-d]imidazol-9-yl}-1H-imidazol-2-yl)-5-methylpyrrolidin-1-yl]-3-methyl-1-oxobutan-2-yl}carbamate]	< 1 nM	0.005 nM	< 1 nM	0.004 nM	< 1 nM	0.077 nM	< 1 nM		0.113 nM					44.4 nM
COC(=O)N[C@H](C(=O)N1C[C@@H](COC(F)F)C[C@H]1c1ncc(-c2ccc3c(c2)COc2cc4c(ccc5nc([C@@H]6CC[C@H](C)N6C(=O)[C@@H](NC(=O)OC)C(C)C)[nH]c54)cc2-3)[nH]1)C(C)C [Example PT, methyl {(2S)-1-[(2S,4S)-4-[(difluoromethoxy)methyl]-2-(5-{2-[(2S,5S)-1-{(2S)-2-[(methoxycarbonyl)amino]-3-methylbutanoyl}-5-methylpyrrolidin-2-yl]-1,11-dihydroisochromeno[4′,3′:6,7]naphtho[1,2-d]imidazol-9-yl}-1H-imidazol-2-yl)pyrrolidin-1-yl]-3-methyl-1-oxobutan-2-yl}carbamate]	< 1 nM	0.007 nM	< 1 nM	0.007 nM	< 1 nM	0.383 nM	< 1 nM		0.182 nM					
COC[C@H]1C[C@@H](c2ncc(-c3ccc4c(c3)COc3cc5c(ccc6nc([C@@H]7C[C@H](COC(F)F)CN7C(=O)[C@@H](NC(=O)OC)C(C)C)[nH]c65)cc3-4)[nH]2)N(C(=O)[C@@H](NC(=O)OC)C(C)C)C1 [Example PU, methyl {(2S)-1-[(2S,4S)-2-(5-{2-[(2S,4S)-4-[(difluoromethoxy)methyl]-1-{(2S)-2-[(methoxycarbonyl)amino]-3-methylbutanoyl}pyrrolidin-2-yl]-1,11-dihydroisochromeno[4′,3′:6,7]naphtho[1,2-d]imidazol-9-yl}-1H-imidazol-2-yl)-4-(methoxymethyl)pyrrolidin-1-yl]-3-methyl-1-oxobutan-2-yl}carbamate]	< 1 nM	0.012 nM	< 1 nM	0.006 nM	< 1 nM	0.068 nM	< 1 nM		0.442 nM					
